The subject of one data set is COS7 cells. Description: Cell viability after UV irradiation by trypan blue exclusion. In kind it is cell-based, monkey. As to the method: COS7 (monkey kidney) cells were grown in DMEM high glucose (Gibco no. 11995; with L-glutamine and Na-pyruvate)+10% FCS. Typically, 3 cm2 of cells are needed for a cross-linking experiment with detection by western blotting. At about 70%, medium was replaced by LM-4 (DMEM lacking Met, Leu, Ile and Val and phenol red, supplemented with 5% dialyzed FCS) or by LM-2 (LM-4+1 mM of each Ile and Val). Photo-amino acids were added to a final concentration of 4 mM photo-Leu and photo-Ile, 1.7 mM photo-Met and cells were cultivated for further 22 h followed by washing with PBS and UV-irradiation using a 200 W high pressure mercury lamp (Oriel Photomax) with a glass filter to remove wavelengths shorter 310 nm. The samples were placed at a distance of 38 cm to the light source, corresponding to a illuminated area of 105 mm diameter. […] We used an irradiation time 1-3 min for experiments with living cells. […] Lysis of cells, SDS-PAGE and western blotting were done as described^33. For immunoprecipitation, cells were lysed in 20 mM Hepes/NaOH pH 7.4, 100 mM NaCl, 5 mM EDTA, 1% Triton X 100, 0.5% sodium deoxycholate, the lysate was cleared with protein-A beads and incubated with beads that were preincubated with polyclonal anti-myc or anti-HA antibody. Beads were collected and washed three times each with 20 mM Hepes/NaOH pH 7.25, 0.5% CHAPS and with 100 mM Tris-HCl pH 8.3, 150 mM NaCl, 2 mM EDTA, 0.1% w/v SDS, 0.5% w/v Nonidet P40, 0.5% w/v sodiumdeoxycholate. Proteins were eluted from beads by heating with reducing SDS-PAGE sample buffer.
Unnatural amino acids frequently are toxic to cells. To find out if this is the case for photo-amino acids of the invention, we monitored in COS7 cells protein biosynthesis by incorporation of [^3H]Phe and viability by trypan blue exclusion of cells grown in the presence or absence of the photo-amino acids photo-Leu, photo-Met and photo-Ile. Due to the lack of two essential amino acids in the growth medium, protein biosynthesis is reduced to about 65% of that in a full growth medium. […] Although cells grew slightly slower than in full growth medium, viability (Table 2) and cell morphology (not shown) were unaffected.

Data set [1] deals with E. coli beta-galactosidase. Description: Activity of beta-galactosidase expressed in cells grown with photo-amino acids. The format is cell-based, monkey. To be noted: COS 7 cells, 20 h in LM-2 with photo-amino acid; percent ± SD (n = 6) of value in DMEM + FCS. An excerpt: We furthermore tested, whether proteins produced by cells grown with photo-amino acids are functional or not. For that, we transfected cells with GFP-fusion constructs of the small GTPase Rab5 and of mutated Rab5 that is constitutively activated (GFP-Rab5QL) or dominant negative (GFP-Rab5SN)^19 and monitored the GFP fluorescence by confocal microscopy. Four hours after transfection, when cells were switched to media containing photo-amino acids, no GFP signal was detectable (see FIG. 7). […] Both, staining intensity and localization were unaffected by the presence of either of the photo-amino acids. Taking into account a frequency of substitution of photo-Met for Met of 35% (see below) and the amounts of Met in Rab5 and GFP, more than 80% of the fusion protein will have photo-Met in both the Rab5- and the GFP-part of the fusion, more than 99% in at least one of the two parts. […] To corroborate this with a quantitative assay, we measured the activity of beta-galactosidase that was expressed in the absence or presence of photo-amino acids (see Table 4). Activity in LM-2 labeling medium was 79% of that in full DMEM. The addition of either of the three photo-amino acids or of a mixture of photo-Met and photo-Leu had no significant additional effect. E. coli beta-galactosidase contains 23 methionines of which on average 8 would be replaced by photo-Met; less than 0.01% of the protein are expected to have no substitution by photo-Met. We conclude that photo-amino acids are non-toxic to cultivated mammalian cells and can, at least partially, functionally replace branched chain amino acids and methionine.

For another data set, the system named is Insig-1 and PGRMC1. Description: Photo-crosslinking of Insig-1 and PGRMC1 with immunoprecipitation and western blotting. The format is cell-based, human. To be noted: COS7 cells, UV-irradiated, IP anti-HA, blot anti-myc. An excerpt: Cells were UV-irradiated or not irradiated as indicted, lysed and subjected to immunoprecipitation (IP) with anti-HA or anti-myc antibodies as indicated. Immunoprecipitated proteins were separated by SDS-PAGE and probed (WB) for the presence of cross-links with anti-myc antibody or anti-HA antibody as indicated. The small difference in apparent molecular weight of the cross-link is due to different percentage of SDS-PAGE gels used. The presence of uncrosslinked Insig-1 in the left lanes indicates non-covalent co-immunoprecipitation. The strong band in lanes 3 and 4 (IgG-HC) is crossreacting IgG heavy chain.
COS7 (monkey kidney) cells were grown in DMEM high glucose (Gibco no. 11995; with L-glutamine and Na-pyruvate)+10% FCS. […]
The methods of the invention have been applied to the study of protein-protein interactions between membrane proteins. […] To detect the cross-linked proteins, detergent extracts were immunoprecipitated for PGRMC1 with anti-HA antibody and precipitates analyzed for Insig-1 by western blotting with anti-myc antibody. If cells were grown in the absence of photo-Met, only a small amount of co-immunoprecipitated Insig-1, but no cross-linked band was detected (FIG. 6a, lane 2). […] An identical band was detected using the inverted order of detection, i.e. immunoprecipitation with anti-myc followed by blotting with anti-HA antibody (FIG. 6a, lane 3). […]
On the technique in general: Immunoblotting shows a protein as a band on a membrane.

The structures appear in SMILES notation.

The values below come from US20090211893A1, “Photo-Activatable Amino Acids” (priority 2005, published 2009).

As to `CC1(CCC(N)C(=O)O)N=N1` [photo-Met, L-2-amino-5,5′-azi-hexanoic acid], the Cell viability in the data set on COS7 cells (1 min UV) was 99.4 ± 0.5%; in the data set with COS7 cells (1 min UV + 1 h chase) it was 96.1 ± 1.3%; in the data set with COS7 cells (3 min UV), 99.5 ± 0.4%; in the data set on COS7 cells (3 min UV + 1 h chase), 91.9 ± 6.8%; in the data set on COS7 cells (no UV + 1 h chase at 37 degree Celsius in PBS), 99.4 ± 0.4%; in the data set on COS7 cells (no UV, percent ± SD of viable cells), 99.8 ± 0.3%. Also, in data set [1], the beta-galactosidase activity is 73 ± 5%. Moreover, in the data set with Insig-1 and PGRMC1, the “Insig-1×PGRMC1 cross-linked band” value is on record as “a strong band appeared”.
